Source: BindingDB's records for doi:10.1021/acs.jmedchem.6b01169 (Gilead Sciences, 2016)

Target: Phosphatidylinositol 3-kinase regulatory subunit alpha/4,5-bisphosphate 3-kinase catalytic subunit delta isoform (Homo sapiens, UniProt P27986+O00329)
Experiment: Inhibition of human full length PI3K p110delta/p85alpha using phosphatidylinositol […] as substrate measured after 30 mins by TR-FRET assay

Chain of Phosphatidylinositol 3-kinase regulatory subunit alpha/4,5-bisphosphate 3-kinase catalytic subunit delta isoform (P27986 whole entry, canonical isoform): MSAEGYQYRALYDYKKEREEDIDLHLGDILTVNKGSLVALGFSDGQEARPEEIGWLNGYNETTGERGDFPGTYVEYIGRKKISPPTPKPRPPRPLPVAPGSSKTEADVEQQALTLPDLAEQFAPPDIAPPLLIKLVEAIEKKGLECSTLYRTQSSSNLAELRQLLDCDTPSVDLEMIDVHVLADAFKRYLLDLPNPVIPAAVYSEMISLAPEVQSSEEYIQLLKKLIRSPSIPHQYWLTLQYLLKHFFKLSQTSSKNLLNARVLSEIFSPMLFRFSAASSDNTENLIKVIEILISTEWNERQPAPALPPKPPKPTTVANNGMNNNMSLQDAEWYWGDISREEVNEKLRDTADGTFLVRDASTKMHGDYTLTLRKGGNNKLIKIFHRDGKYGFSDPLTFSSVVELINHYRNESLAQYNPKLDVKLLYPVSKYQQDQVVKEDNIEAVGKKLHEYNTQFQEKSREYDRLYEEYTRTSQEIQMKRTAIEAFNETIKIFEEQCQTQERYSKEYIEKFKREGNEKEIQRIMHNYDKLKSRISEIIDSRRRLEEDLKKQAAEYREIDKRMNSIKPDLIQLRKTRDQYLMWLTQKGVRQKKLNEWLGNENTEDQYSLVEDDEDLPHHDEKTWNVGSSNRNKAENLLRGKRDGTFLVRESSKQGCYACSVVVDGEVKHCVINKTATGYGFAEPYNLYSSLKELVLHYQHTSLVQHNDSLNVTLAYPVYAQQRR
Chain of Phosphatidylinositol 3-kinase regulatory subunit alpha/4,5-bisphosphate 3-kinase catalytic subunit delta isoform (O00329 whole entry, canonical isoform): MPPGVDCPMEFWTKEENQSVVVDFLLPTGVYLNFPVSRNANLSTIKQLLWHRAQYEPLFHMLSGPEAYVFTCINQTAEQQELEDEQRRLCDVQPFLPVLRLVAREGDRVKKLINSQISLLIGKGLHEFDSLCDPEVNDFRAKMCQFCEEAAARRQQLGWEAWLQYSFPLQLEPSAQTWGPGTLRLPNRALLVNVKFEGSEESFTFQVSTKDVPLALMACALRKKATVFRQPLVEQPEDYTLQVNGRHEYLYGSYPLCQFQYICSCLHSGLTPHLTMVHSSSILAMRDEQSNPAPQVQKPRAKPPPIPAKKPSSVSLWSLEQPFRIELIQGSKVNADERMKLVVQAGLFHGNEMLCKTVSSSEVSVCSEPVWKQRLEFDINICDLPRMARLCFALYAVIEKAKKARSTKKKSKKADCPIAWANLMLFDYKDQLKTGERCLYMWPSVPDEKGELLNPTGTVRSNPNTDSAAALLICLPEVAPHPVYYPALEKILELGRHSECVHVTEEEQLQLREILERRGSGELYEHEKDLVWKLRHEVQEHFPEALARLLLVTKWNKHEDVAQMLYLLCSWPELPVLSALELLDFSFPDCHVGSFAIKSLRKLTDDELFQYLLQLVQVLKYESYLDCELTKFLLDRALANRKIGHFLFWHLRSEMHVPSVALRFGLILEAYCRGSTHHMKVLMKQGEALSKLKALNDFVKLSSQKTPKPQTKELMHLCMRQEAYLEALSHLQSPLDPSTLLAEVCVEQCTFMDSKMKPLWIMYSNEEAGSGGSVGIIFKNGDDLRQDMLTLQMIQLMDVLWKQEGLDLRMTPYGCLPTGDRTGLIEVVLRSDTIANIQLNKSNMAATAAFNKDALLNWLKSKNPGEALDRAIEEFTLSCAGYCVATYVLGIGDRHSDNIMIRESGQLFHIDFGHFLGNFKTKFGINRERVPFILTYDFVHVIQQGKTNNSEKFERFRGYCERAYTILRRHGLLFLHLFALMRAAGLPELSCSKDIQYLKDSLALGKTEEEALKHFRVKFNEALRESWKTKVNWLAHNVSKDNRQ

Row | IC50 [nM] | Compound
1 | 0.4 | C[C@H](Nc1nc(N)nc(N)c1C#N)c1nc2c(F)ccc(Cl)c2c(=O)n1-c1cccnc1 [US9221795, 24]
2 | 6 | C[C@H](Nc1nc(N)nc(N)c1C#N)c1nc2c(Cl)cccc2c(=O)n1-c1cccnc1 [US9221795, 22]
3 | 0.4 | Cc1ccncc1-n1c([C@H](C)Nc2nc(N)nc(N)c2C#N)nc2cccc(Cl)c2c1=O [US9221795, 40]
4 | 4 | COc1cncc(-n2c([C@H](C)Nc3nc(N)nc(N)c3C#N)nc3cccc(Cl)c3c2=O)c1 [US9221795, 14]
5 | 0.6 | C[C@H](Nc1nc(N)nc(N)c1C#N)c1nc2cccc(Cl)c2c(=O)n1-c1cccnc1 [US9221795, 1]
6 | 8 | C[C@H](Nc1nc(N)nc(N)c1C#N)c1nc2c(F)ccc(F)c2c(=O)n1-c1cccnc1 [US9221795, 25]
7 | 5 | C[C@H](Nc1nc(N)nc(N)c1C#N)c1nc2cccc(Cl)c2c(=O)n1-c1cncc(C2CC2)c1 [US9221795, 19]
8 | 8 | C[C@H](Nc1nc(N)nc(N)c1C#N)c1nc2cccc(Cl)c2c(=O)n1-c1cncc(Cl)c1 [US9221795, 13]
